How the values were obtained:
Human Factor XIIa = target: T1, Human Factor XIIa (Homo sapiens, UniProt P00748); assay: Determination of the % Inhibition for FXIIa (IC50, fluorogenic substrate H-DPro-Phe-Arg-AFC); assay type: biochemical; conditions: Human Factor XIIa (Enzyme Research Laboratories), 25° C.
T1 construct: purchased Enzyme Research Laboratories
T1 sequence (P00748 373-615 limits assumed): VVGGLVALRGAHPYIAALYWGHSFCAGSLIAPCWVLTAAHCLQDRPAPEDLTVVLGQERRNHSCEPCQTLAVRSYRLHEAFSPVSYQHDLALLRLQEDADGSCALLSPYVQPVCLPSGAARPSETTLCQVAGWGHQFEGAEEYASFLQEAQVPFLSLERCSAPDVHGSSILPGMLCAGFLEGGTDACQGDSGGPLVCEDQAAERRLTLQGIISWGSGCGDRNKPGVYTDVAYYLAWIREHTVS
Method: Determination of the % Inhibition for FXIIa
Factor XIIa inhibitory activity in vitro was determined using standard published methods (see e.g. Shori et al., Biochem. Pharmacol., 1992,43, 1209; Baeriswyl et al., ACS Chem. Biol., 2015, 10 (8) 1861; Bouckaert et al., European Journal of Medicinal Chemistry 110 (2016) 181). Human Factor XIIa (Enzyme Research Laboratories) was incubated at 25° C. with the fluorogenic substrate H-DPro-Phe-Arg-AFC and various concentrations of the test compound. Residual enzyme activity (initial rate of reaction) was determined by measuring the change in […] at 410 nm and the IC50 value for the test compound was determined.

Human FXIa = target: T2, Human FXIa (Homo sapiens, UniProt P03951); assay: Determination of the % Inhibition for FXIa (IC50, fluorogenic substrate Z-Gly-Pro-Arg-AFC); assay type: biochemical; conditions: Selectivity, Human FXIa (Enzyme Research Laboratories), 25° C.
T2 construct: purchased Enzyme Research Laboratories
Method: Determination of the % Inhibition for FXIa
FXIa inhibitory activity in vitro was determined using standard published methods (see e.g. Johansen et al., Int. J. Tiss. Reac. 1986, 8, 185; Shori et al., Biochem. Pharmacol., 1992, 43, 1209; Stürzebecher et al., Biol. Chem. Hoppe-Seyler, 1992, 373, 1025). Human FXIa (Enzyme Research Laboratories) was incubated at 25° C. with the fluorogenic substrate Z-Gly-Pro-Arg-AFC and various concentrations of the test compound. Residual enzyme activity (initial rate of reaction) was determined by measuring the change in fluorescence at 410 nm and the IC50 value for the test compound was determined.

T2 sequence (P03951 388-625 limits assumed): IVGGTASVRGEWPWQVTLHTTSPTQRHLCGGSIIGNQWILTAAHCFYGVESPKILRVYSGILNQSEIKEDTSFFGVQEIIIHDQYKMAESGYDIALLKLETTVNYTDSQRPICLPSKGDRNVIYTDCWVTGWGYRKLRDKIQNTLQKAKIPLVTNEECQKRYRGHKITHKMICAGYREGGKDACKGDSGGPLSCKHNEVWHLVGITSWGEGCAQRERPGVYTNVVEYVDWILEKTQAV
T2 sequence (P03951 19-387 partner limits assumed): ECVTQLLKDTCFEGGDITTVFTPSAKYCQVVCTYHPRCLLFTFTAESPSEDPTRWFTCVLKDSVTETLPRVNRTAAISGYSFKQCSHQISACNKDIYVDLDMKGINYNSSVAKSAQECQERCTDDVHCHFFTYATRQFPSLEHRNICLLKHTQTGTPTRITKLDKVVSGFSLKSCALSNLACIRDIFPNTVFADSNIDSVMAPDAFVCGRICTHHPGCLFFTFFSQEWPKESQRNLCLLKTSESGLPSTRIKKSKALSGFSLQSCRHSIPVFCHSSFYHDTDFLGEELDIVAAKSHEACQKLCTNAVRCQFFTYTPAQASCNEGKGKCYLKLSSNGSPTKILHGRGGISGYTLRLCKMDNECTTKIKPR

| SMILES | IC50 (Human Factor XIIa) | IC50 (Human FXIa) |
| --- | --- | --- |
| CN1CCN(C(=O)c2ccnc(NCc3ccc4c(N)nccc4c3)c2)CC1 [Example 18.205] | 10 to 40 µM | – |
| CN1CCC(Oc2cncc(NCc3ccc4c(N)nccc4c3)n2)CC1 [Example 18.207, 6-(((6-((1-Methylpiperidin-4-yl)oxy)pyrazin-2-yl)amino)methyl)isoquinolin-1-amine] | 10 to 40 µM | – |
| CN1CCC(COc2ccc(NCc3ccc4c(N)nccc4c3)cn2)CC1 [Example 18.12] | – | 33.1 µM |
| CN1CCC(CNC(=O)c2cccc(NCc3ccc4c(N)nccc4c3)n2)CC1 [Example 18.201, 6-(((1-Aminoisoquinolin-6-yl)methyl)amino)-N-((1-methylpiperidin-4-yl)methyl)picolinamide] | 3 to 10 µM | – |
| CN1CCC(CNC(=O)c2ccc(NCc3ccc4c(N)nccc4c3)nc2)CC1 [Example 18.13] | 3 to 10 µM | – |
| CN1CCC(NC(=O)c2ccc(NCc3ccc4c(N)nccc4c3)nc2)CC1 [Example 18.16] | 10 to 40 µM | – |
| Nc1nccc2cc(CNc3cc(OC4CCNCC4)ccn3)ccc12 [Example 18.213, 6-(((4-(Piperidin-4-yloxy)pyridin-2-yl)amino)methyl)isoquinolin-1-amine] | 3 to 10 µM | – |
| Nc1nccc2cc(CNc3cc(OCCN4CCOCC4)ccn3)ccc12 [Example 18.208] | 10 to 40 µM | – |
| Nc1nccc2cc(CNc3ccc(OC4CCNCC4)cc3)ccc12 [Example 18.07] | 1 to 3 µM | – |
| Nc1nccc2cc(CNc3ccc(COC4CCNCC4)cn3)ccc12 [Example 18.19, 6-(((5-((Piperidin-4-yloxy)methyl)pyridin-2-yl)amino)methyl)isoquinolin-1-amine] | 3 to 10 µM | – |
| Nc1nccc2cc(CNc3ccc(OCCN4CCOCC4)cn3)ccc12 [Example 18.09, 6-(((5-(2-Morpholinoethoxy)pyridin-2-yl)amino)methyl)isoquinolin-1-amine] | 10 to 40 µM | – |
| CN1CCC(Oc2cccc(NCc3ccc4c(N)nccc4c3)n2)CC1 [Example 18.203] | 10 to 40 µM | – |
| CN1CCC(NC(=O)c2ccnc(NCc3ccc4c(N)nccc4c3)c2)CC1 [Example 18.204, 2-(((1-Aminoisoquinolin-6-yl)methyl)amino)-N-(1-methylpiperidin-4-yl)isonicotinamide] | 3 to 10 µM | – |
| CN1CCC(Oc2cc(NCc3ccc4c(N)nccc4c3)ncn2)CC1 [Example 18.209] | 1 to 3 µM | – |
| CN1CCC(Oc2cnc(NCc3ccc4c(N)nccc4c3)nc2)CC1 [Example 18.02, 6-[({5-[(1-Methylpiperidin-4-yl)oxy]pyrimidin-2-yl}amino)methyl]isoquinolin-1-amine] | 10 to 40 µM | – |
| CN1CCC(Oc2cncc(NCc3ccc4c(N)nccc4c3)c2)CC1 [Example 18.212] | 1 to 3 µM | – |

Other lines, results leading:

| IC50 (Human Factor XIIa) | IC50 (Human FXIa) | SMILES |
| --- | --- | --- |
| < 1 µM | 24.8 µM | CN1CCC(COc2cnc(NCc3ccc4c(N)nccc4c3)cn2)CC1 [Example 18.10, 6-(((5-((1-Methylpiperidin-4-yl)methoxy)pyrazin-2-yl)amino)methyl)isoquinolin-1-amine] |
| 1 to 3 µM | – | CN1CCC(OCc2ccnc(NCc3ccc4c(N)nccc4c3)c2)CC1 [Example 18.206, 6-(((4-(((1-Methylpiperidin-4-yl)oxy)methyl)pyridin-2-yl)amino)methyl)isoquinolin-1-amine] |
| 1 to 3 µM | – | CN1CCCC(COc2ccc(NCc3ccc4c(N)nccc4c3)nc2)C1 (stereo not shown) [Example 18.14] |
| 1 to 3 µM | – | CN1CCCC(Oc2ccnc(NCc3ccc4c(N)nccc4c3)c2)C1 (stereo not shown) [Example 18.210] |
| < 1 µM | – | CN1CCC(COc2ccc(NCc3ccc4c(N)nccc4c3)cc2)CC1 [Example 18.18, 6-(((4-((1-Methylpiperidin-4-yl)methoxy)phenyl)amino)methyl)isoquinolin-1-amine] |
| < 1 µM | > 40 µM | CN1CCC(OCc2ccc(NCc3ccc4c(N)nccc4c3)nc2)CC1 [Example 18.03, 6-(((5-(((1-Methylpiperidin-4-yl)oxy)methyl)pyridin-2-yl)amino)methyl)isoquinolin-1-amine] |
| < 1 µM | 19.9 µM | CN1CCC(Oc2cnc(NCc3ccc4c(N)nccc4c3)cn2)CC1 [Example 18.05] |
| < 1 µM | – | CN1CCC(COc2ccc(NCc3ccc4c(N)nccc4c3)cc2CO)CC1 [Example 18.15, (5-(((1-Aminoisoquinolin-6-yl)methyl)amino)-2-((1-methylpiperidin-4-yl)methoxy)phenyl)methanol] |
| < 1 µM | > 40 µM | CN1CCC(Oc2ccnc(NCc3ccc4c(N)nccc4c3)c2)CC1 [Example 18.202, 6-(((4-((1-methylpiperidin-4-yl)oxy)pyridin-2-yl)amino)methyl)isoquinolin-1-amine] |
| < 1 µM | > 40 µM | CN1CCC(COc2ccc(NCc3ccc4c(N)nccc4c3)nc2)CC1 [Example 18.04, 6-(((5-((1-Methylpiperidin-4-yl)methoxy)pyridin-2-yl)amino)methyl)isoquinolin-1-amine] |
| < 1 µM | – | CN1CCC(COc2ccc(NCc3ccc4c(N)nccc4c3)cc2CCO)CC1 [Example 18.17] |
| 1 to 3 µM | – | CN1CCC(Oc2cccc(NCc3ccc4c(N)nccc4c3)c2)CC1 [Example 18.211] |
| 1 to 3 µM | – | CN1CCC(Oc2ccc(NCc3ccc4c(N)nccc4c3)nn2)CC1 [Example 18.06] |
| 1 to 3 µM | 36.4 µM | CN1CCC(Oc2ccc(NCc3ccc4c(N)nccc4c3)nc2)CC1 [Example 18.01, 6-(((5-((1-Methylpiperidin-4-yl)oxy)pyridin-2-yl)amino)methyl)isoquinolin-1-amine] |
| < 1 µM | > 40 µM | CN1CCC(Oc2ccc(NCc3ccc4c(N)nccc4c3)cc2)CC1 [Example 18.08, 6-(((4-((1-Methylpiperidin-4-yl)oxy)phenyl)amino)methyl)isoquinolin-1-amine] |
| < 1 µM | 17.9 µM | CN1CCC(COc2ccc(NCc3ccc4c(N)nccc4c3)cn2)CC1 [Example 18.11, 6-(((6-((1-Methylpiperidin-4-yl)methoxy)pyridin-3-yl)amino)methyl)isoquinolin-1-amine] |
